Experimental data published in patent US6514989B1, “Aromatic and heteroaromatic substituted 1,2,4-triazolo pyridine derivatives” (Hoffmann-La Roche Inc., priority 2001, dated 2003).

Columns and labels:
[1] = target: T1, human adenosine A2a receptor (Homo sapiens, UniProt P29274); experiment: Human adenosine A2a receptor radioligand binding assay ([125I]-AB-MECA, CHO cell membranes); conditions: for Selectivity A1/A2a: ratio obtained by dividing KiHA1 by KiHA2A; for Ki: recombinant human A2a receptor expressed in CHO cells, Ki from IC50 by Cheng-Prussoff equation, read-out: hA2a Ki
T1 construct: expressed in transfected cells; host or cells: CHO cells, semliki forest virus expression system; membrane preparation
Experimental: Human Adenosine A2a Receptor
The gene encoding human adenosine A2a receptor was recombinantly introduced and expressed in chinese hamster ovary (CHO) cells using the semliki forest virus expression system. Cells were harvested, washed twice by centrifugation, homogenized and again washed by centrifugation. The final washed membrane pellet was suspended in a Tris (50 mM) buffer containing 120 mM NaCl, 5 mM KCl, 2 mM CaCl2 and 10 mM MgCl2 (pH 7.4) (buffer A). The [^125I]-AB-MECA ([N(6)-(4-amino-3-iodobenzyl)-5′-N-methylcarbamoyl-adenosine]; 0.05 nM) binding assay was carried out in 96-well a plates in the presence of 20 μg of membrane protein and 0.1 U adenosine deaminase in a final volume of […] of buffer A. Non-specific binding was defined using xanthine amine congener (XAC; 2 μM). Compounds were tested at 10 concentrations from 10 μM-0.3 nM. All assays were conducted in duplicate and repeated at least two times. Assay plates were incubated for 1 hour at room temperature before filtration through Whatman Unifilter GF/C 96-well filter plates (preincubated with 0.3% polyethyleneimine). Filters were washed 3 times with 0.3 ml of cold (4° C.) Tris (50 mM)—NaC […]
[…] 1 (120 mM) buffer (pH 7.4). Microscint 40 scintillation fluid (50 μl) was added to each well and the wells sealed. After gentle shaking for 20 min, plates were counted on a Packard Topcount scintillation counter. IC50 values were calculated using a non-linear curve fitting program and Ki values calculated using the Cheng-Prussoff equation.
(§1) In accordance with the invention, it has been shown that compounds of formula I have a high affinity toward the A2A receptor. In Table I below specific values of prepared compounds are described, Values of KiHA2A and KiHA1 are shown in Table I for compounds of formula 1. A low Ki value is indicative of a particular compound's high affinity toward a particular receptor and conversely a higher Ki value is indicative of a lower affinity for that compound toward a particular receptor. […] Generally speaking, compounds that have a higher HA1/HA2A ratio are able to give a substantially complete blockade of the HA2A receptor without substantially affecting the A1 receptor.

[2] = target: T2, human adenosine A1 receptor (Homo sapiens, UniProt P30542); experiment: Human adenosine A1 receptor radioligand binding assay ([3H]-DPCPX, SPA, CHO cell membranes); conditions: recombinant human A1 receptor expressed in CHO cells; [3H]-DPCPX 0.6 nM; Ki from IC50 by Cheng-Prussoff equation; read-out: hA1 Ki
T2 construct: expressed in transfected cells; host or cells: CHO cells, semliki forest virus expression system; membrane preparation
T2 sequence (P30542 1-326): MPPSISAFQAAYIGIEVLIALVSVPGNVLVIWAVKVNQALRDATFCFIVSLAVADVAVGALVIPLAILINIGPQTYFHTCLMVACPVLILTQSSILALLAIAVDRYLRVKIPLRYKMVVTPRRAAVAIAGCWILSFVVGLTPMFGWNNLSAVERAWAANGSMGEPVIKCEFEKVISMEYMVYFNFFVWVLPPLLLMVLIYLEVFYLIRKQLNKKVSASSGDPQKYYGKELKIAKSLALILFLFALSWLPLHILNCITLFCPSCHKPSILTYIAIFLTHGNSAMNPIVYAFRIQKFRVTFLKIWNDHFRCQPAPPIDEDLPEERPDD
Experimental: Human Adenosine A^1 Receptor
The gene encoding human adenosinie A1 receptor was recombinantly introduced and expressed in chinese hamster ovary (CHO) cells using the semliki forest virus expression system. Cells were harvested, washed twice by centrifugation, homogenized and again washed by centrifugation. The final washed membrane pellet was suspended in a Tris (50 mM) buffer containing 120 mM NaCl, 5 mM KCl, 2 mM CaCl2 and 10 mM MgCl2 (pH 7.4) (buffer A). The [^3H]-DPCPX (([propyl-3H]8-cyclopentyl-1,3-dipropyxanthine); 0.6 nM) binding assay was carried out in 96-well plates in the presence of 2.5 μg of membrane protein, 0.5 mg of Ysi-poly-1-lysine SPA beads and 0.1 U adenosine deaminase in a final volume of 200 μl of buffer A. Non-specific binding was defined using xanthine amine congener (XAC; 2 μM). Compounds were tested at 10 concentrations from 10 μM-0.3 nM. All assays were conducted in duplicate and repeated at least two times. Assay plates were incubated for 1 hour at room temperature before centrifugation and then bound ligand determined using a Packard Topcount scintillation counter. IC50 values were calculated using a non-linear curve fitting program and Ki values calculated using the Cheng-Prussoff equation.
as §1

T1 sequence (P29274 whole entry): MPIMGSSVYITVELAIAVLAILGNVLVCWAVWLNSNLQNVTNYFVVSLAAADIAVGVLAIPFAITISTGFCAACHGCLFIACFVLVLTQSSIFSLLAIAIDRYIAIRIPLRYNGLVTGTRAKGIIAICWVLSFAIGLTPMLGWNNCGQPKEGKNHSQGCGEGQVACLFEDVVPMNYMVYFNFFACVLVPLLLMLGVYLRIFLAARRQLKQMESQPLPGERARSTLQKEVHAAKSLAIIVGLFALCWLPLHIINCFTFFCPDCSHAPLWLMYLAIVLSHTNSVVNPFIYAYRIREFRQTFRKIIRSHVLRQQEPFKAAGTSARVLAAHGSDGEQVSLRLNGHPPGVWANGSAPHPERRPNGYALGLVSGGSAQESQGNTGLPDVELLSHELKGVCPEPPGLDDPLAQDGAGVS

| Structure (SMILES) | Selectivity A1/A2a [1] | Ki [1] | Ki [2] |
| --- | --- | --- | --- |
| COc1ccc(-c2ccccc2)n2nc(NC(=O)c3ccc(F)cc3)nc12 [Example 4, 4-Fluoro-N-(8-methoxy-5-phenyl-[1,2,4]triazolo[1,5-a]pyridin-2-yl)-benzamide] | 19.6 | 0.114 µM | 2.24 µM |
| COc1ccc(-c2ccccc2)n2nc(NC(=O)c3cccc(Br)c3)nc12 [Example 8, 3-Bromo-N-(8-methoxy-5-phenyl-[1,2,4]triazolo[1,5-a]pyridin-2-yl)-benzamide] | 21.1 | 0.136 µM | 2.88 µM |
| COc1ccc(-c2ccccc2)n2nc(NC(=O)c3cccc(Cl)c3)nc12 [Example 6, 3-Chloro-N-(8-methoxy-5-phenyl-[1,2,4]triazolo[1,5-a]pyridin-2-yl)-benzamide] | 15.8 | 0.181 µM | 2.87 µM |
| COc1ccc(-c2cccs2)n2nc(NC(=O)c3ccccc3Cl)nc12 [Example 13, 2-Chloro-N-(8-methoxy-5-thiophen-2-yl-[1,2,4]triazolo[1,5-a]pyridin-2-yl)-benzamide] | 9.8 | 0.23 µM | 2.25 µM |
